Series [1] is described as follows: Odor control spray test, six person human panel: fox urine odor. More on the design: key: E=Excellent, immediate removal of odor, no remaining odor.; G=Good, Immediate (within seconds) reduction of odor, very slight but detectable trace odor remains.; F=Fair, Immediate (within seconds) reduction, more pronounced odor remains.; P=Detectable reduction in odor but rate of reduction is slow and a much more pronounced odor remains. The following applies: 0.5 g red fox urine, 3 g of 1% w/w solution with 0.3% Avenal S-74, pH 8.0-9.0, sprayed, 20° C. How it is done:
(§1) For purposes of conducting the test in accordance with the below listed Examples a series of odorous test reagents were prepared. The utilized odorous test reagents are in accordance with the following:
0.5 g of deer hunter's grade red fox urine was used for each test.
(§2) Unless otherwise specified separate 1% w/w solutions in water of each halo active aromatic sulfonamide derivative were prepared for use. Each solution also contained 0.3% Avenal S-74. The pH of the resulting formulations varied between 8.0 and 9.0.
(§3) The testing protocol for Examples 1 thru 12 involved is as follows: The defined odorous reagents were added to a beaker, watch glass, or petri dish. For each aromatic sulfonamide derivative, 3 grams of the formulated odor control solution defined above were sprayed with a trigger sprayer, separately onto each odor (onion, garlic, fox urine, rotten egg. Odor evaluations were then made by a six person human panel.
(§4) The evaluation criteria utilized is as follows;
(§5) All test evaluations were made at 20° C.

Series [2] is described as follows: Odor control spray test, six person human panel: rotten egg odor (sodium sulfide + acetic acid). More on the design: key: E=Excellent, immediate removal of odor, no remaining odor.; G=Good, Immediate (within seconds) reduction of odor, very slight but detectable trace odor remains.; F=Fair, Immediate (within seconds) reduction, more pronounced odor remains.; P=Detectable reduction in odor but rate of reduction is slow and a much more pronounced odor remains. The following applies: 0.1 g 5% sodium sulfide solution + 2 drops glacial acetic acid, 3 g of 1% w/w solution with 0.3% Avenal S-74, pH 8.0-9.0, sprayed, 20° C. As for the experimental part: as §1
0.1 g of a 5% sodium sulfide solution was added to a beaker and 2 drops of glacial acetic acid was added to prepare the rotten egg scent and used for each test.
as §2, §3, §4, §5

Series [3] can be described thus: Odor control spray test, six person human panel: garlic odor (DMSO). More on the design: key: E=Excellent, immediate removal of odor, no remaining odor.; G=Good, Immediate (within seconds) reduction of odor, very slight but detectable trace odor remains.; F=Fair, Immediate (within seconds) reduction, more pronounced odor remains.; P=Detectable reduction in odor but rate of reduction is slow and a much more pronounced odor remains. The following applies: 1 g DMSO, 3 g of 1% w/w solution with 0.3% Avenal S-74, pH 8.0-9.0, sprayed, 20° C. As for the experimental part: as §1
DMSO (dimethyl sulfoxide) 1 g was used for each test.
as §2, §3, §4, §5

Series [4] can be described thus: Odor control spray test, six person human panel: onion odor. More on the design: key: E=Excellent, immediate removal of odor, no remaining odor.; G=Good, Immediate (within seconds) reduction of odor, very slight but detectable trace odor remains.; F=Fair, Immediate (within seconds) reduction, more pronounced odor remains.; P=Detectable reduction in odor but rate of reduction is slow and a much more pronounced odor remains. Particulars: 2 g chopped white onion, 3 g of 1% w/w solution with 0.3% Avenal S-74, pH 8.0-9.0, sprayed, 20° C. As for the experimental part:
as §1
2 g samples of chopped white onion (Approximately ⅛″ cubes) were prepared and used for each test.
as §2, §3, §4, §5

Series [5] is described as follows: Stability of sulfonamide in base formulation at various pHs and alcohols. The format is physicochemical. How it is done:
In order to evaluate the stability of various sulfonamide compounds for use in odor control, the stability of N-chloro-4carboxybenzenesulfonamide disodium salt was evaluated at various pHs. A base sulfonamide formulation was prepared in accordance with the following formulation: […]
The pH of 20 ml sample of the base formulation is 8.7. The temperature of the sample was raised to 50° C. and the sample was allowed to stand for 30 days.
21. The test protocol of Example 20 was repeated except that the pH of the sample was adjusted to 6.0, with 1N sulfuric acid and the sample was allowed to stand for 1 day. At the end of this period 0%, of the N-chloro-4-carboxybenzenesulfonamide disodium salt remained.
22. The test procedure of Example 20 was repeated, wherein the pH of the sample was adjusted to 6.0 with 1N sulfuric acid and the t-Butanol was replaced with ethanol. The solution was allowed to stand 1 day at which time 0% of the sulfonamide compound remained.
23. The test procedure of Example 20 was repeated where the pH of the sample was 8.7 and the t-butanol was replaced with ethanol. The sample was allowed to stand for 7 days. At the end of this period 0%, the N-chloro-4-carboxybenzenesulfonamide disodium salt remained.
24. The test procedure of Example 20 was repeated, wherein the pH of the sample was adjusted to 10.3 with 1N sodium hydroxide and the t-Butanol was replaced with ethanol. The solution was allowed to stand 30 days at which time 70% of the sulfonamide compound remained.
25. The test procedure of Example 20 was repeated, wherein the pH of the sample was adjusted to 6.0 with 1N sulfuric acid and the t-Butanol was replaced with isopropanol. The solution was allowed to stand 1 day at which time 0% of the sulfonamide compound remained.
26. The test procedure of Example 20 was repeated where the pH of the sample was 8.7 and the t-butanol was replaced with isopropanol. The sample was allowed to stand for 7 days. At the end of this period 50%, the N-chloro-4-carboxybenzenesulfonamide disodium salt remained.
27. The test procedure of Example 20 was repeated, wherein the pH of the sample was adjusted to 10.3 with 1N sodium hydroxide and the t-Butanol was replaced with isopropanol. The solution was allowed to stand 30 days at which time 90% of the sulfonamide compound remained.

As for `O=C([O-])c1ccc(S(=O)(=O)[N-]Cl)cc1.[Na+].[Na+]` [Example 12], the “Fox Urine odor evaluation” value in series [1] was “E”. Moreover, in series [2], the “Rotten Egg odor evaluation” value is “E”. Besides, in series [3], the Garlic odor evaluation entry is reported as “F”. The Onion odor evaluation entry in series [4] was “E”.

On to “N-chloro-4-carboxybenzenesulfonamide disodium salt”, for which the sulfonamide compound remained in series [5] (base formulation with t-Butanol, pH 8.7, 50° C., 30 days) is 99.5%; in series [5] (t-Butanol replaced with ethanol, pH 6.0, 50° C., 1 day), 0%; in series [5] (t-Butanol replaced with ethanol, pH 10.3 with 1N sodium hydroxide, 50° C., 30 days), 70%; in series [5] (t-Butanol replaced with isopropanol, pH 6.0, 50° C., 1 day) it was 0%; in series [5] (t-Butanol replaced with isopropanol, pH 10.3 with 1N sodium hydroxide, 50° C., 30 days), 90%; in series [5] (t-Butanol, pH adjusted to 6.0 with 1N sulfuric acid, 50° C., 1 day), 0%. For the same compound, the sulfonamide compound remained in series [5] (t-butanol replaced with ethanol, pH 8.7, 50° C., 7 days) was found to be 0%; in series [5] (t-butanol replaced with isopropanol, pH 8.7, 50° C., 7 days), 50%.

Take `O=[N+]([O-])c1ccc(S(=O)(=O)[N-]Cl)cc1.[Na+]` [Example 11]: the “Fox Urine odor evaluation” value in series [1] is recorded as “E”. Besides, the “Rotten Egg odor evaluation” value in series [2] is on record as “F”. The Garlic odor evaluation result in series [3] was “F”. Also, the Onion odor evaluation entry in series [4] is listed as “G”.

The values above are taken from patent publication US8003823B2, “Halo active aromatic sulfonamide organic compounds and odor control uses therefor” (priority 2002, dated 2011).
